Structures are written as SMILES. Calls of active or inactive are those of the source.

Cytochrome P450 2D6, sequence (P10635 whole entry): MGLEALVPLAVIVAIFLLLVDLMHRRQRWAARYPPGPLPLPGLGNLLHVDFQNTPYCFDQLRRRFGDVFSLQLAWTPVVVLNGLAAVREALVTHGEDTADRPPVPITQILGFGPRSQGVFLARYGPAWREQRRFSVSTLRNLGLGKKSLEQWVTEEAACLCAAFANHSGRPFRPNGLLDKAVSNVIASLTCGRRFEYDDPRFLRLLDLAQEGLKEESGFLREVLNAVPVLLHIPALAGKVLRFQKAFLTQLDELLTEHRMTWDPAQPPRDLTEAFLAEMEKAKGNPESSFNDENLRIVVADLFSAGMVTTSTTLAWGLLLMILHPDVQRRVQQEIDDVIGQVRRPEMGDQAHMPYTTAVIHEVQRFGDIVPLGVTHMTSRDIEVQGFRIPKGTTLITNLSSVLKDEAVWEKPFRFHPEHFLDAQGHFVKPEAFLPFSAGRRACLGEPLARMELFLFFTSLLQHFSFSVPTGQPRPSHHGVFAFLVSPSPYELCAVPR
Cytochrome P450 3A4, sequence (P08684 whole entry): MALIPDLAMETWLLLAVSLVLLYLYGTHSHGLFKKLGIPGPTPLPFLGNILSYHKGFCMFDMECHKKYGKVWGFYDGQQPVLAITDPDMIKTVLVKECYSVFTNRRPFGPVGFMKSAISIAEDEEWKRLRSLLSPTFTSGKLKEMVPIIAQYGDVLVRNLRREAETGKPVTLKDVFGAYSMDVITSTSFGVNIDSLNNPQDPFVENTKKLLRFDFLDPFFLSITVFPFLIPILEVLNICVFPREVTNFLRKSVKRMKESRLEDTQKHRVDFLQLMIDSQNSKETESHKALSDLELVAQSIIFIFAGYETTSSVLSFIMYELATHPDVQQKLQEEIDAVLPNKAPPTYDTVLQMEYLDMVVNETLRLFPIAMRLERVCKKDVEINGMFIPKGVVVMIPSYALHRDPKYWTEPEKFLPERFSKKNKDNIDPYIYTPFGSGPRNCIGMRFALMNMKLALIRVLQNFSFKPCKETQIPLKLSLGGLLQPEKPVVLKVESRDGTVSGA

In one assay the target is T1, Corticotropin-releasing factor receptor 2/Corticotropin-releasing factor-binding protein (Homo sapiens, UniProt P24387+Q13324).
T1 sequence (Q13324 whole entry): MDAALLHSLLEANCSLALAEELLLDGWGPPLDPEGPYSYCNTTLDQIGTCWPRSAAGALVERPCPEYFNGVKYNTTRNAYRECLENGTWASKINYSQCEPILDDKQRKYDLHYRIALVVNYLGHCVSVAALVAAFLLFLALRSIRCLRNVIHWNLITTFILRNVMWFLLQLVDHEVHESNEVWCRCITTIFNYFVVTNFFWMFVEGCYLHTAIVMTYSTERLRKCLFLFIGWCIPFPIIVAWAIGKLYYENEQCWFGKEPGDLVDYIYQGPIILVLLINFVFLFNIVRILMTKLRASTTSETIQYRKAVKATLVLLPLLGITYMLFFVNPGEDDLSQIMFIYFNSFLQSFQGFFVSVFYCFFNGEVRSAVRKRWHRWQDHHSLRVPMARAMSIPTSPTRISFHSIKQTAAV
T1 sequence (P24387 whole entry): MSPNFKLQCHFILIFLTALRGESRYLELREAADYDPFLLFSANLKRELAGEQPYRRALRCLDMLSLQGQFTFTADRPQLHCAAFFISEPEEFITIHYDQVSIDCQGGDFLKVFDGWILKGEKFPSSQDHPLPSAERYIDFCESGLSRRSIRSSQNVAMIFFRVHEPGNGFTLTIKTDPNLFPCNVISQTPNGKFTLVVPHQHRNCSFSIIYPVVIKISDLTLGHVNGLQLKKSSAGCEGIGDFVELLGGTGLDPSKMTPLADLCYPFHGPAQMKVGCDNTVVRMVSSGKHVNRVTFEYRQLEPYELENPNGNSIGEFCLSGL
Description: Dose Response confirmation of uHTS hits for small molecule antagonists of the CRF-binding protein and CRF-R2 receptor complex. The class given is functional. As to conditions: read-out: IC50_Mean.
Turning to `CC(C)(C)NC(=O)/C(=C/c1ccccc1F)NC(=O)c1ccc([N+](=O)[O-])cc1`, the IC50 was > 47.1 µM (inactive).

With `CCOc1ccccc1N1CCN(C(=O)Cc2ccc(S(=O)(=O)N3CCOCC3)s2)CC1`, the IC50 is > 47.1 µM (inactive). `COc1ccc(S(=O)(=O)N2CCN(C(=O)CCCN3C(=O)NC4(CCCC4)C3=O)CC2)cc1`: the IC50 was > 47.1 µM (inactive). Take `CCOC(=O)C1CCCN(C(=O)COC(=O)c2cccs2)C1` (stereo unspecified): the IC50 was > 47.1 µM (inactive).

For `O=C(NC1(C(F)(F)F)C(=O)Nc2c1c(=O)[nH]c(=O)n2Cc1ccccc1)c1ccc(Cl)cc1` (stereo unspecified), the IC50 is > 47.1 µM (inactive). On the same count and under the same terms, for `CC1CN(S(=O)(=O)c2ccc(C(=O)N3CCc4ccccc43)cc2)CC(C)O1` (stereo unspecified) the value was > 47.1 µM (inactive); for `COc1ccc(NC(=O)c2nc3nccc(C)n3n2)cc1S(=O)(=O)N1CCOCC1`, > 47.1 µM (inactive).

Turning to `COc1ccc(CC(=O)N/N=C(\C)c2ccc(Br)s2)cc1`, the IC50 was > 47.1 µM (inactive).

System in another assay: not listed separately
In words: Shn3 3'UTR reporter inhibitors, dose response, cell-based, Clone20 osteoblasts, firefly luciferase, cherry-picked (AID 624132).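 Further: firefly luciferase luminescence from reporter carrying the Shn3 3'UTR in osteoblasts.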
Conditions: not given
The class given is functional.
As usually defined, the AC50 is the concentration at which the activity in the assay is half-maximal. For the molecule `CCN(CC)C(=O)C1CCCN(c2ccc([N+](=O)[O-])cc2[N+](=O)[O-])C1` (stereo unspecified), the AC50 is 52.4 µM (active).

A further assay has as its target T1, Corticotropin-releasing factor receptor 2/Corticotropin-releasing factor-binding protein. Description: activators of CRF receptor 2 with binding protein – uHTS hits, confirmation (AID 602473). In kind it is functional. The settings on record: read-out: EC50_Mean.
As to `CC(C)(C)NC(=O)/C(=C/c1ccccc1F)NC(=O)c1ccc([N+](=O)[O-])cc1`, the EC50 was > 53 µM (inactive). Consider `CCOc1ccccc1N1CCN(C(=O)Cc2ccc(S(=O)(=O)N3CCOCC3)s2)CC1`, for which the EC50 is > 53 µM (inactive). Still for that read-out and setting: for `COc1ccc(S(=O)(=O)N2CCN(C(=O)CCCN3C(=O)NC4(CCCC4)C3=O)CC2)cc1` the value was > 53 µM (inactive); for `CCOC(=O)C1CCCN(C(=O)COC(=O)c2cccs2)C1` (stereo unspecified), > 53 µM (inactive); for `O=C(NC1(C(F)(F)F)C(=O)Nc2c1c(=O)[nH]c(=O)n2Cc1ccccc1)c1ccc(Cl)cc1` (stereo unspecified), > 53 µM (inactive). For the molecule `CC1CN(S(=O)(=O)c2ccc(C(=O)N3CCc4ccccc43)cc2)CC(C)O1` (stereo unspecified), the EC50 was > 53 µM (inactive). `COc1ccc(NC(=O)c2nc3nccc(C)n3n2)cc1S(=O)(=O)N1CCOCC1`: the EC50 is > 53 µM (inactive). `COc1ccc(CC(=O)N/N=C(\C)c2ccc(Br)s2)cc1`: the EC50 was > 53 µM (inactive).

Another assay has as its target Cytochrome P450 2D6 (Homo sapiens, UniProt P10635).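 Further: CYP2D6 member of a cytochrome P450 panel assay.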
Conditions: not given
As for `OCCNc1nc(SCc2ccccc2)nc2sc3c(c12)CCC3`, the AC50 is 25.1 µM (inconclusive).

`O=C(Oc1ccccc1)N1CCC2(CCCN(Cc3ccccc3)C2)CC1`: the AC50 was 10 µM (inconclusive). Still for that read-out and setting: the result for `CS(=O)(=O)Nc1cccc(-c2ccc3ncnc(Nc4ccc(F)cc4)c3c2)c1` reads 39.8 µM (inconclusive). Same read-out and setting: for `COc1ccc2[nH]cc(CCNc3cc(-c4cccc(C#N)c4)ncn3)c2c1` the value was 20 µM (inconclusive).

In the case of `c1ccc2c(NCCN3CCOCC3)nc(-c3ccoc3)nc2c1`, the AC50 is 25.1 µM (inconclusive).

Regarding `COC(=O)c1ccc(C(NC(=O)c2ccco2)[C@]2(C)C[C@H]2C2CCCCC2)cc1` (stereo partly specified), the concentration at half-maximal activity (AC50) is 12.6 µM (inconclusive).

Turning to `COc1cccc(C(C(=O)Nc2ccc(F)cc2)N(C(=O)Cn2nnc3ccccc32)C2CC2)c1` (stereo unspecified), the half-maximal activity concentration (AC50) is 25.1 µM (inconclusive).

`CCn1c(SCC(=O)NC2CCCCC2)nc2c(c1=O)SC(C)C2` (stereo unspecified): the half-maximal activity concentration (AC50) was 1.58 µM (inconclusive). Consider `COc1ccccc1C(=O)NCCn1cc(SCC(=O)Nc2nnc(C)s2)c2ccccc21`, for which the half-maximal activity concentration (AC50) was 28.2 µM (inconclusive).

As to `Cc1ccnn2cc3c(=O)n(C)c(=O)n(C)c3c12`, the AC50 is 20 µM (inconclusive). Take `CN1[C@@H]2CC[C@H]1C[C@@H](OC(=O)c1c[nH]c3ccccc13)C2` [TROPISETRON]: the AC50 is 31.6 µM (inconclusive).

Another assay addresses Cytochrome P450 3A4 (Homo sapiens, UniProt P08684).
Conditions: not given
Consider `O=C(Oc1ccccc1)N1CCC2(CCCN(Cc3ccccc3)C2)CC1`, for which the concentration at half-maximal activity (AC50) is 12.6 µM (inconclusive).

In the case of `c1ccc2c(NCCN3CCOCC3)nc(-c3ccoc3)nc2c1`, the concentration at half-maximal activity (AC50) was 15.8 µM (inconclusive).

The target of another assay is Cytochrome P450 2C9 (Homo sapiens, UniProt P11712).
Cytochrome P450 2C9, sequence (P11712 whole entry): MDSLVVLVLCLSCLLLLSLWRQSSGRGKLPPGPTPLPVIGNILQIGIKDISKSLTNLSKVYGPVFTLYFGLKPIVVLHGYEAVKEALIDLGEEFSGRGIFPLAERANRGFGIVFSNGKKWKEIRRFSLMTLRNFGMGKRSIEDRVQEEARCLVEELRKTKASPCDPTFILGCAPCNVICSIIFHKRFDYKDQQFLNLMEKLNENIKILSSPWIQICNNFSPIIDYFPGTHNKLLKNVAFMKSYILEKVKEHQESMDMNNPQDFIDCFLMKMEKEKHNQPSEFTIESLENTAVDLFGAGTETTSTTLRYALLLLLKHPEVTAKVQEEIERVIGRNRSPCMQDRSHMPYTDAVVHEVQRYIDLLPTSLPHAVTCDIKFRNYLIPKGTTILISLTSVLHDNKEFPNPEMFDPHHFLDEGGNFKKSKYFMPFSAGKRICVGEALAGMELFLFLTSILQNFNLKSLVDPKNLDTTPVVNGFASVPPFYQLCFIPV
Conditions: not given
On to `Cc1ccnn2cc3c(=O)n(C)c(=O)n(C)c3c12`, for which the AC50 was 11.2 µM (inconclusive).

The values above are taken from ChEMBL document CHEMBL1201862, “PubChem BioAssay data set” (2004).
